Assays:
Assay in all cases: relative viability (nuclei count vs DMSO), 5 days (fraction); higher = more cells survive
201T = system: 201T
How it was run: (§1)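 Cells from lung cancer lines were seeded into 1536-well plates and, one day later, dosed by pin tool. Treatments were either a single drug or a fixed dose of an anchor drug with five library-drug doses (not always all listed) in √10 steps. After 5 days, nuclei were stained in a one-step fixation (final 0.05% Triton X-100, 1% formaldehyde, 1 ug/ml Hoechst) and counted on 4× images, and relative viability is the treated-to-vehicle nuclei ratio, as the median of duplicate plates.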

BEN = system: BEN
How it was run: as §1

EPLC-272H = system: EPLC-272H
How it was run: as §1

HCC-15 = system: HCC-15
How it was run: as §1

HCC-78 = system: HCC-78
How it was run: as §1

LCLC-97TM1 = system: LCLC-97TM1
How it was run: as §1

LU99A = system: LU99A
How it was run: as §1

NCI-H1355 = system: NCI-H1355
How it was run: as §1

NCI-H1395 = system: NCI-H1395
How it was run: as §1

NCI-H2009 = system: NCI-H2009
How it was run: as §1

NCI-H2085 = system: NCI-H2085
How it was run: as §1

NCI-H2126 = system: NCI-H2126
How it was run: as §1

NCI-H2228 = system: NCI-H2228
How it was run: as §1

NCI-H23 = system: NCI-H23
How it was run: as §1

NCI-H2405 = system: NCI-H2405
How it was run: as §1

NCI-H322M = system: NCI-H322M
How it was run: as §1

NCI-H460 = system: NCI-H460
How it was run: as §1

NCI-H647 = system: NCI-H647
How it was run: as §1

NCI-H650 = system: NCI-H650
How it was run: as §1

NCI-H661 = system: NCI-H661
How it was run: as §1

NCI-H838 = system: NCI-H838
How it was run: as §1

PC-14 = system: PC-14
How it was run: as §1

CN1CCN(CCOc2cc(OC3CCOCC3)c3c(Nc4c(Cl)ccc5c4OCO5)ncnc3c2)CC1 [Saracatinib] + C[C@]1(O)C[C@@H](c2nc(-c3ccc4ccc(-c5ccccc5)nc4c3)c3c(N)nccn32)C1 [Linsitinib] (partner 1 µM)
relative viability (201T; first compound 0.02 µM): 1.05 | relative viability (201T; first compound 0.2 µM): 0.927 | relative viability (201T; first compound 0.6325 µM): 0.91 | relative viability (201T; first compound 2 µM): 0.809 | relative viability (BEN; first compound 0.02 µM): 0.991 | relative viability (BEN; first compound 0.2 µM): 0.914 | relative viability (BEN; first compound 0.6325 µM): 1.15 | relative viability (BEN; first compound 2 µM): 0.64 | relative viability (EPLC-272H; first compound 0.02 µM): 1.23 | relative viability (EPLC-272H; first compound 0.2 µM): 1.28 | relative viability (EPLC-272H; first compound 0.6325 µM): 1.12 | relative viability (EPLC-272H; first compound 2 µM): 1.07 | relative viability (HCC-15; first compound 0.02 µM): 0.911 | relative viability (HCC-15; first compound 0.2 µM): 0.84 | relative viability (HCC-15; first compound 0.6325 µM): 0.86 | relative viability (HCC-15; first compound 2 µM): 0.726 | relative viability (HCC-78; first compound 0.02 µM): 0.52 | relative viability (HCC-78; first compound 0.2 µM): 0.505 | relative viability (HCC-78; first compound 0.6325 µM): 0.753 | relative viability (HCC-78; first compound 2 µM): 0.497 | relative viability (LCLC-97TM1; first compound 0.02 µM): 0.17 | relative viability (LCLC-97TM1; first compound 0.2 µM): 0.127 | relative viability (LCLC-97TM1; first compound 0.6325 µM): 0.197 | relative viability (LCLC-97TM1; first compound 2 µM): 0.272 | relative viability (LU99A; first compound 0.02 µM): 0.575 | relative viability (LU99A; first compound 0.2 µM): 0.372 | relative viability (LU99A; first compound 0.6325 µM): 0.465 | relative viability (LU99A; first compound 2 µM): 0.411 | relative viability (NCI-H1355; first compound 0.02 µM): 0.793 | relative viability (NCI-H1355; first compound 0.2 µM): 0.767 | relative viability (NCI-H1355; first compound 0.6325 µM): 0.832 | relative viability (NCI-H1355; first compound 2 µM): 0.615 | relative viability (NCI-H1395; first compound 0.02 µM): 1.08 | relative viability (NCI-H1395; first compound 0.2 µM): 0.995 | relative viability (NCI-H1395; first compound 0.6325 µM): 1.27 | relative viability (NCI-H1395; first compound 2 µM): 0.876 | relative viability (NCI-H2009; first compound 0.02 µM): 1.19 | relative viability (NCI-H2009; first compound 0.2 µM): 1.04 | relative viability (NCI-H2009; first compound 0.6325 µM): 1.15 | relative viability (NCI-H2009; first compound 2 µM): 1.04 | relative viability (NCI-H2085; first compound 0.02 µM): 0.952 | relative viability (NCI-H2085; first compound 0.2 µM): 0.901 | relative viability (NCI-H2085; first compound 0.6325 µM): 0.881 | relative viability (NCI-H2085; first compound 2 µM): 0.898 | relative viability (NCI-H2126; first compound 0.02 µM): 0.74 | relative viability (NCI-H2126; first compound 0.2 µM): 0.649 | relative viability (NCI-H2126; first compound 0.6325 µM): 0.612 | relative viability (NCI-H2126; first compound 2 µM): 0.549 | relative viability (NCI-H2228; first compound 0.02 µM): 0.806 | relative viability (NCI-H2228; first compound 0.2 µM): 0.704 | relative viability (NCI-H2228; first compound 0.6325 µM): 0.574 | relative viability (NCI-H2228; first compound 2 µM): 0.392 | relative viability (NCI-H23; first compound 0.02 µM): 0.58 | relative viability (NCI-H23; first compound 0.6325 µM): 0.558 | relative viability (NCI-H23; first compound 2 µM): 0.466 | relative viability (NCI-H2405; first compound 0.02 µM): 0.87 | relative viability (NCI-H2405; first compound 0.2 µM): 0.829 | relative viability (NCI-H2405; first compound 0.6325 µM): 0.466 | relative viability (NCI-H2405; first compound 2 µM): 0.372 | relative viability (NCI-H322M; first compound 0.02 µM): 0.999 | relative viability (NCI-H322M; first compound 0.2 µM): 0.962 | relative viability (NCI-H322M; first compound 0.6325 µM): 0.924 | relative viability (NCI-H322M; first compound 2 µM): 0.569 | relative viability (NCI-H460; first compound 0.02 µM): 0.716 | relative viability (NCI-H460; first compound 0.2 µM): 0.664 | relative viability (NCI-H460; first compound 0.6325 µM): 0.329 | relative viability (NCI-H460; first compound 2 µM): 0.181 | relative viability (NCI-H647; first compound 0.02 µM): 1.05 | relative viability (NCI-H647; first compound 0.2 µM): 0.943 | relative viability (NCI-H647; first compound 0.6325 µM): 1.14 | relative viability (NCI-H647; first compound 2 µM): 0.514 | relative viability (NCI-H650; first compound 0.02 µM): 0.94 | relative viability (NCI-H650; first compound 0.2 µM): 0.885 | relative viability (NCI-H650; first compound 0.6325 µM): 0.838 | relative viability (NCI-H650; first compound 2 µM): 0.98 | relative viability (NCI-H661; first compound 0.02 µM): 0.525 | relative viability (NCI-H661; first compound 0.2 µM): 0.598 | relative viability (NCI-H661; first compound 0.6325 µM): 0.571 | relative viability (NCI-H661; first compound 2 µM): 0.376 | relative viability (NCI-H838; first compound 0.02 µM): 0.997 | relative viability (NCI-H838; first compound 0.2 µM): 0.871 | relative viability (NCI-H838; first compound 0.6325 µM): 0.749 | relative viability (NCI-H838; first compound 2 µM): 0.838 | relative viability (PC-14; first compound 0.02 µM): 0.952 | relative viability (PC-14; first compound 0.2 µM): 0.708 | relative viability (PC-14; first compound 0.6325 µM): 0.304 | relative viability (PC-14; first compound 2 µM): 0.166
